According to ChEMBL document CHEMBL1201862, “PubChem BioAssay data set” (2004):
Blank lines part the entries; values can stand above or below the compound they belong to. Calls of active or inactive are those of the source.

How the values were obtained:
[1] = biological target: T1, Oxysterols receptor LXR-beta (Homo sapiens, UniProt P55055); format: functional, cell-based;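 further: agonist activity at LXR measured by a cell-based luminescence readout across a dose range, run as a counterscreen for daf-12 agonists; HEK293 cells with Gal4-LXR fusion and GAL4-driven luciferase reporter; potency for activation of Gal4-LXR reporter so compounds are agonists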
T1 sequence (P55055 whole entry): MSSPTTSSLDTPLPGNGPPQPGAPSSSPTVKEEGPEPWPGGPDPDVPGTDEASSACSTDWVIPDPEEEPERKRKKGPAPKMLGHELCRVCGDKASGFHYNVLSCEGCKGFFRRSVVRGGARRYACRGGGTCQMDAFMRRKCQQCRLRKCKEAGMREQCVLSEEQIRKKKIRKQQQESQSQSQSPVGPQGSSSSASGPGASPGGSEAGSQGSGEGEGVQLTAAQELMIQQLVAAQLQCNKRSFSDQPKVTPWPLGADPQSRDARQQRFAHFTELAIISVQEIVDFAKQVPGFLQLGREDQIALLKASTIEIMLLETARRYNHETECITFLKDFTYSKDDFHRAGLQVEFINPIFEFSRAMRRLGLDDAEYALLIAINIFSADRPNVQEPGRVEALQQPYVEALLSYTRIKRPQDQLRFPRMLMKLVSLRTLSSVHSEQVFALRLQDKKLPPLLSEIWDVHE

[2] = cytotoxicity in OVCAR8 ovarian cancer cells, dose response, PAX8 project, cell-based, plate reader, dry powder samples (AID 743197); format: functional; settings: OVCAR-8
Paired box protein Pax-8 = Paired box protein Pax-8 (Homo sapiens, UniProt Q06710); assay: inhibitors of PAX8-driven TPO luciferase reporter, dose response, RMG-I cells, cherry-pick (AID 687027); format: functional, cell-based;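 further: luciferase reporter driven by Pax8 target thyroperoxidase promoter measured by SteadyGlo luminescence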
Sequence of Paired box protein Pax-8 (Q06710 whole entry): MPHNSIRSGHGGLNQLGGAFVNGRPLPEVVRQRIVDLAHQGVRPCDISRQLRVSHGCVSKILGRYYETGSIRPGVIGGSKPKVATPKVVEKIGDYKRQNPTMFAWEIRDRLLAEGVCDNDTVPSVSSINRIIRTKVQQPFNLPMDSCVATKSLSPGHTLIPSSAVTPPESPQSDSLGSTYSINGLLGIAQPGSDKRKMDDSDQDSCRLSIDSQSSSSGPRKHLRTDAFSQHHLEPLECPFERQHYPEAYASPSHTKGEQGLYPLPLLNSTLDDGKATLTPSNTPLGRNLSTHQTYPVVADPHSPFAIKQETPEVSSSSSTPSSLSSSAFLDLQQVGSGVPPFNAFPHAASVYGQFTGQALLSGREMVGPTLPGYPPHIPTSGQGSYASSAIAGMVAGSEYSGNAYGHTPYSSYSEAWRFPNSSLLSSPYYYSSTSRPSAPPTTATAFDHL

[3] = IGROV1 ovarian cancer cell cytotoxicity, dose response, PAX8 inhibitor project, plate reader, dry powder samples (AID 743043); format: functional, cell-based; settings: IGROV-1
[4] = A2780 ovarian cancer cell cytotoxicity, dose response, cytotoxicity control, plate reader, dry powder samples (AID 743046); format: functional, cell-based
[5] = NIH:OVCAR-3 ovarian cancer cell cytotoxicity, dose response, PAX8 inhibitor project, plate reader, dry powder samples (AID 743044); format: functional, cell-based
[6] = non-specific cell cytotoxicity, dose response, cytotoxicity control for PAX8 inhibitor project, plate reader, dry powder samples (AID 743021); format: functional, cell-based
[7] = IOSE-T80 ovarian epithelial cell cytotoxicity, dose response, cytotoxicity control for PAX8 inhibitor project, plate reader, dry powder samples (AID 743045); format: functional, cell-based
[8] = T. cruzi growth inhibition in host cells, dose response, cell-based, plate reader, dry powder, set 2 (AID 652275); format: functional
[9] = inhibitors of PGC1a acetylation in cells, dose response, cell-based, cherry-picked samples (AID 720514); format: functional;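 further: potency may reflect raised or lowered acetylation signal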
[10] = biological target: Potassium channel subfamily K member 3 (Homo sapiens, UniProt O14649); assay: TASK1 (KCNK3) potassium channel inhibitors, SAR follow-up, CHO cells, FluxOR thallium flux (AID 652212); format: functional
Sequence of Potassium channel subfamily K member 3 (O14649 whole entry): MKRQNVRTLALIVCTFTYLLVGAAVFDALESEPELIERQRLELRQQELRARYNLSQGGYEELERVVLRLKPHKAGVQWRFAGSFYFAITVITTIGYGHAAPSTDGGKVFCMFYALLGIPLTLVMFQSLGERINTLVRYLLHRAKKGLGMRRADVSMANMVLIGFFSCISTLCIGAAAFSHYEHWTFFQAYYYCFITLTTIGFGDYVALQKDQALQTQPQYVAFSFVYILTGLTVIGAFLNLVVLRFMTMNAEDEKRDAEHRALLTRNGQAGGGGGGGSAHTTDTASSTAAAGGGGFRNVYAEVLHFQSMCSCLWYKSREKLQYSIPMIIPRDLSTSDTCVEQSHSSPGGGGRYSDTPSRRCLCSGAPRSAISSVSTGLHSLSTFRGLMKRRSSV

[11] = biological target: Potassium channel subfamily K member 9 (Homo sapiens, UniProt Q9NPC2); assay: TASK3 (KCNK9) channel inhibitors, thallium flux, SAR follow-up, selectivity assay for TASK1 inhibitor project, cell-based, FluxOR thallium flux, concentration-response (AID 652211); format: functional;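 further: potency is for inhibitors of the channel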
Sequence of Potassium channel subfamily K member 9 (Q9NPC2 whole entry): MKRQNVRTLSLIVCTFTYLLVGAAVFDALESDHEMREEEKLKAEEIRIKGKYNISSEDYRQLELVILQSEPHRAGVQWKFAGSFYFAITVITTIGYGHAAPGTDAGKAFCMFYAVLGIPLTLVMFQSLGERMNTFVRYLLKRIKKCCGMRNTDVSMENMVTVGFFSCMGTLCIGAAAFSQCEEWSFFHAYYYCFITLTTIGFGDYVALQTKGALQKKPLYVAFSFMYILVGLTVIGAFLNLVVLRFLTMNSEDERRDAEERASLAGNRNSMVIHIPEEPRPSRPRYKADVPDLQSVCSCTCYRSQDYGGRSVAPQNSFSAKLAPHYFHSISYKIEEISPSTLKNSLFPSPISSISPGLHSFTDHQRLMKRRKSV

[12] = P. falciparum 3D7-ScDHODH growth inhibitors, dose response, SYBR Green, dry powder samples (AID 1159570); format: functional, cell-based;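 further: parasite growth measured after 72 hours of compound exposure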
[13] = P. falciparum ATP4 D1247Y mutant growth inhibitors, dose response, NITD609-resistant line, SYBR Green, dry powder (AID 1159571); format: functional, cell-based;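 further: parasites synchronized at ring stage by sorbitol before testing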
[14] = HepG2 cell cytotoxicity, dose response, cytotoxicity control, plate reader, dry powder samples (AID 1159569); format: functional, cell-based;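 further: inhibitor potency with signal falling toward the positive control level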
[15] = P. falciparum Dd2 growth inhibitors, dose response, SYBR Green, cherry-picked samples (AID 1159567); format: functional, cell-based
[16] = P. falciparum Dd2 growth inhibitors, dose response, SYBR Green, dry powder samples (AID 1159566); format: functional, cell-based;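 further: potency for growth inhibition with lower SYBR green DNA signal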
[17] = HepG2 cell cytotoxicity, dose response, cytotoxicity control, cherry-picked samples (AID 1159577); format: functional, cell-based
[18] = biological target: RNA-editing ligase 1, mitochondrial (Trypanosoma brucei brucei, UniProt P86926); assay: TbREL1 ligase inhibitors, dose response, biochemical, fluorescence, Trypanosoma brucei (AID 1117295); format: functional
Sequence of RNA-editing ligase 1, mitochondrial (P86926 whole entry): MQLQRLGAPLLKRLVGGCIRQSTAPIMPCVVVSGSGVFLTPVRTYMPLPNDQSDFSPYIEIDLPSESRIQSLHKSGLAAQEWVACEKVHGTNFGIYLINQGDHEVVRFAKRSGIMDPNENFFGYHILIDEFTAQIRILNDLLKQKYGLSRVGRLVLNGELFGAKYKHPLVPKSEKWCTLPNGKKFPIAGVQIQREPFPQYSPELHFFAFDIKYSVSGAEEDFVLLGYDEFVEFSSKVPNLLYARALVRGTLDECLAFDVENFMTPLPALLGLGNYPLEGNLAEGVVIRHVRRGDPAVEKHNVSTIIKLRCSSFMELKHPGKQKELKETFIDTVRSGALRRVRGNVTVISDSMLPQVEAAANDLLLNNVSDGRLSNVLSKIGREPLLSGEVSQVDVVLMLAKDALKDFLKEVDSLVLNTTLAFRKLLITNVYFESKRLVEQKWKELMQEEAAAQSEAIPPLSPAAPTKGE

[19] = HeLa 2N DNA content increase, dose response, cell-based, IC50 (AID 1117349); format: functional
[20] = CellTiter-Glo luminescent dose response of DLD-1 viability loss (AID 1117352); format: functional
P388 = assay: cells; format: functional; settings: Mus musculus
[21] = SNU-C1 cell viability reduction, dose response, CellTiter-Glo luminescence (AID 1117323); format: functional, cell-based
[22] = cytotoxicity toward HT-29 cells – cell-based, CellTiter-Glo luminescence, IC50, dose response (AID 1117330); format: functional
SN12K1 = assay: cells; format: functional; settings: Homo sapiens
[23] = cytotoxicity toward HCT116 cells – cell-based, CellTiter-Glo luminescence, IC50, dose response (AID 1117332); format: functional; settings: HCT-116
[24] = Concentration-dependent survival of SW480 colon cancer line, luminescence detection with CellTiter-Glo, half-maximal inhibitory concentration (AID 1117338); format: functional
[25] = HCT116 cell viability decrease, GSK3B pretreatment – CellTiter-Glo, IC50, dose response (AID 1117339); format: functional; settings: HCT-116
[26] = cytotoxicity toward Colo320 cells – cell-based, CellTiter-Glo luminescence, IC50, dose response (AID 1117334); format: functional; settings: COLO 320
[27] = RKO cell viability reduction, dose response, CellTiter-Glo luminescence (AID 1117322); format: functional
[28] = HeLa 4N DNA content increase, dose response, cell-based, IC50 (AID 1117351); format: functional
P388/ADR = assay: cells; format: functional; settings: Mus musculus

- EC50 [1]: > 67.5 µM (inactive)
SMILES: OCCN1CCN(c2cnc(-c3ccsc3)cn2)CC1

SMILES: CS(=O)(=O)Nc1ccc2c(c1)[C@@H]1C[C@@H](CC(=O)NCc3ccc(-c4ccccc4)cc3)O[C@@H](CO)[C@@H]1O2
- AC50 [2]: 16.5 µM (active)
- AC50 (Paired box protein Pax-8): 3.2 µM (active)
- AC50 [3]: 17.6 µM (active)
- AC50 [4]: 17.7 µM (active)
- AC50 [5]: 9.08 µM (active)
- AC50 [6]: 65.6 µM (active)
- AC50 [7]: 11.7 µM (active)

SMILES: CC(=O)N1CCCCN2[C@@H](CO)[C@H](c3ccc(-c4cccc(C(=O)N(C)C)c4)cc3)[C@@H]2C1
- AC50 [8]: 4.94 µM (active)

SMILES: CC(C)CC#Cc1ccc2c(c1)O[C@H](CN(C)Cc1ccccc1)[C@@H](C)CN([C@H](C)CO)S2(=O)=O
- AC50 [9]: 16.4 µM (active)

- IC50 [10]: 0.009 µM (active)
- IC50 [11]: 3.06 µM (active)
SMILES: Cc1cccc(C(=O)Nc2cccc(NC(=O)c3cccc(C(F)(F)F)c3)c2)c1

SMILES: COc1ccc2c3c(n(C)c2c1)[C@H](CO)N(Cc1ccc(Cl)cc1)CC31CCN(CC2CC2)CC1
- AC50 [12]: 2.85 µM (active)
- AC50 [13]: 2.65 µM (active)
- AC50 [14]: 19.8 µM (active)
- AC50 [15]: 2.33 µM (active)
- AC50 [16]: 2.23 µM (active)
- AC50 [17]: > 39 µM (inactive)

SMILES: COc1cccc(CN2CCCCN3[C@H](CO)[C@@H](c4ccc(C#Cc5cccnc5)cc4)[C@H]3C2)c1
- AC50 [12]: 2.04 µM (active)
- AC50 [13]: 0.934 µM (active)
- AC50 [14]: 14 µM (active)
- AC50 [15]: 0.859 µM (active)
- AC50 [16]: 0.56 µM (active)
- AC50 [17]: 24 µM (active)

- IC50 [18]: > 96.6 µM (inactive)
SMILES: COC(=O)C1=C(C)N(Cc2cccc(C(F)(F)F)c2)C(NCC2CC2)=NC1c1ccccc1C(F)(F)F (centres undefined)

SMILES: Nc1nc2[nH]cnc2c(=S)[nH]1 [THIOGUANINE]
- IC50 [19]: > 10 µM (inactive)
- IC50 [20]: 0.108 µM (active)
- GI50 (P388): 0.0762 µM (active)
- IC50 [21]: 4.4 µM (active)
- IC50 [22]: 0.0493 µM (active)
- GI50 (SN12K1): 0.281 µM (active)
- AC50 [6]: 1.99 µM (active)
- IC50 [23]: 0.139 µM (active)
- IC50 [24]: 0.402 µM (active)
- IC50 [25]: 0.163 µM (active)
- IC50 [26]: 0.373 µM (active)
- IC50 [27]: 0.343 µM (active)
- IC50 [28]: > 10 µM (inactive)
- GI50 (P388/ADR): 0.181 µM (active)
